Data taken from ChEMBL document CHEMBL4304765 (ACS Med Chem Lett, 2019).
Calls of active or inactive are those of the source.

How the values were obtained:
[1] = molecular target: Beta-2 adrenergic receptor (Homo sapiens, UniProt P07550); test: Binding affinity to beta2 adrenergic receptor (unknown origin) by radioligand binding assay
[2] = molecular target: Beta-1 adrenergic receptor (Homo sapiens, UniProt P08588); test: Binding affinity to beta1 adrenergic receptor (unknown origin) by radioligand binding assay
[3] = Metabolic stability in Sprague-Dawley rat liver microsomes at 10 uM preincubated for 5 mins followed by NADPH addition and measured for 60 mins by HPLC analysis; format: ADME, Microsome; conditions: read-out: Stability
Rattus norvegicus = test: Antiallodynic activity in streptozocin-induced Sprague-Dawley rat of diabetic neuropathy model assessed as increase in mechanical withdrawal threshold at 10 mg/kg administered via oral gavage and measured for 3 to 4 times at 1 min interval by von Frey assay; format: functional, organism-based
[4] = molecular target: T1, Bifunctional epoxide hydrolase 2 (Homo sapiens) (UniProt P34913)
T1 sequence (whole entry): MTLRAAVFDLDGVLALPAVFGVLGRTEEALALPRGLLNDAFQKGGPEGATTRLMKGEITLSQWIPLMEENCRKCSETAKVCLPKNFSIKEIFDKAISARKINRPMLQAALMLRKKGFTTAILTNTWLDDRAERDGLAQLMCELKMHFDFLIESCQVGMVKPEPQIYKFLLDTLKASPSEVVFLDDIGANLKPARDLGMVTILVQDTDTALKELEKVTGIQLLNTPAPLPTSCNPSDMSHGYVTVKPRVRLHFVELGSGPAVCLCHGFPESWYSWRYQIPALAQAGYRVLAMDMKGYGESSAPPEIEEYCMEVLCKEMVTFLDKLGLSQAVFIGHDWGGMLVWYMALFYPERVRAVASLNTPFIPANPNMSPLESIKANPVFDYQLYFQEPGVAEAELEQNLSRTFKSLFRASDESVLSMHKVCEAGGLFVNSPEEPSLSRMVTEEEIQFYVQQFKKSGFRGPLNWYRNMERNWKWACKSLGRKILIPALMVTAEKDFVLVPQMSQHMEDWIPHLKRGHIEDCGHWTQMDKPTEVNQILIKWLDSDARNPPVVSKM
Description: Binding affinity to recombinant human C-terminal soluble epoxide hydrolase-hydrolase domain (222 to 555 residues) expressed in Escherichia coli BL21(DE3) assessed as change in melting temperature at 200 uM by SYPRO orange dye-based differential scanning fluorimetric analysis (Rvb = 57.0 +/- 0.0 degreeC)

[5] = molecular target: T2, Bifunctional epoxide hydrolase 2 (Homo sapiens, UniProt P34913); test: Inhibition of recombinant human full length soluble epoxide hydrolase (1 to 555 residues) expressed in Escherichia coli BL21(DE3) using non-fluorescent PHOME as substrate preincubated for 30 mins followed by substrate addition and measured after 30 mins by fluorescence based assay
T2 sequence (P34913 whole entry): T1 sequence (whole entry)

Row | IC50 [5] | SMILES | Ki [1] | Ki [2] | remaining at 1 h, 10 µM [3] | Activity [1] | Activity (Rattus norvegicus) | Tm [4] | Activity [2] | IC50 ([5]; read-out: IC50)
1 |  | CC(C)(C)NCC(O)COc1ccc(NC(=O)NC2CCCCC2)cc1 (configuration not stated) [TALINOLOL] | 900 nM | 240 nM | 86% |  |  |  |  | 
2 |  | CC(C)(C)N1CCOC(COc2ccc(NC(=O)NC3CCCCC3)cc2)C1 (configuration not stated) |  |  | 71% | inactive | Active | 65.1 °C | inactive | 77 nM
3 | Not Active | CC(C)NCC(O)COc1cccc2ccccc12 (configuration not stated) [PROPRANOLOL] |  |  | 37% |  |  | 56.3 °C |  | 
